ChEMBL document CHEMBL1201862, “PubChem BioAssay data set” (2004)
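Assay format: 96-well plates, 48-hour exposure. GI50 is the concentration that inhibits growth by half.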 Calls of active or inactive are those of the source. Rule as the data show it: active = GI50 up to about 1.1 µM and inactive = higher.

Tests used:
Test in all cases: NCI anticancer screen, dose series, 48 h
SF-268 = test system: SF-268
MDA-MB-231 = test system: MDA-MB-231
LOX IMVI = test system: LOX IMVI
U-251 = test system: U-251
SK-MEL-28 = test system: SK-MEL-28
786-0 = test system: 786-0
NCI-H460 = test system: NCI-H460
HCT-116 = test system: HCT-116
SR = test system: SR
HOP-92 = test system: HOP-92
ACHN = test system: ACHN
HT-29 = test system: HT-29
NCI/ADR-RES = test system: NCI/ADR-RES
KM12 = test system: KM12
MOLT-4 = test system: MOLT-4
M14 = test system: M14
NCI-H522 = test system: NCI-H522
A498 = test system: A498
K562 = test system: K562
MDA-MB-435 = test system: MDA-MB-435

| SMILES | GI50 (SF-268) | GI50 (MDA-MB-231) | GI50 (LOX IMVI) | GI50 (U-251) | GI50 (SK-MEL-28) | GI50 (786-0) | GI50 (NCI-H460) | GI50 (HCT-116) | GI50 (SR) | GI50 (HOP-92) | GI50 (ACHN) | GI50 (HT-29) | GI50 (NCI/ADR-RES) | GI50 (KM12) | GI50 (MOLT-4) | GI50 (M14) | GI50 (NCI-H522) | GI50 (A498) | GI50 (K562) | GI50 (MDA-MB-435) |
| --- | --- | --- | --- | --- | --- | --- | --- | --- | --- | --- | --- | --- | --- | --- | --- | --- | --- | --- | --- | --- |
| BrCc1ccc(CBr)c2c1-c1c(CBr)ccc3ccc(CBr)c-2c13 | > 100 µM (inactive) | > 100 µM (inactive) | > 100 µM (inactive) | 49.8 µM (inactive) | > 100 µM (inactive) | > 100 µM (inactive) | > 100 µM (inactive) | 98.6 µM (inactive) | 46.2 µM (inactive) | > 100 µM (inactive) | > 100 µM (inactive) | > 100 µM (inactive) | > 100 µM (inactive) | > 100 µM (inactive) | 33.8 µM (inactive) | > 100 µM (inactive) | > 100 µM (inactive) | > 100 µM (inactive) | 99.1 µM (inactive) | > 100 µM (inactive) |
| COc1c(CC=C(C)C)c(O)c(C(CC(C)C)c2c(O)c(CC=C(C)C)c(O)c(C(C)=O)c2O)c(O)c1C(C)=O (stereo not given) | 0.323 µM (active) | 1.64 µM (inactive) | 1.57 µM (inactive) | 0.703 µM (active) | 0.695 µM (active) | 1.63 µM (inactive) | 0.589 µM (active) | 0.325 µM (active) | 1.1 µM (active) | 0.191 µM (active) | 1.1 µM (active) | 0.723 µM (active) | 0.729 µM (active) | 0.998 µM (active) | 0.644 µM (active) | 1.43 µM (inactive) | 0.2 µM (active) | 0.0843 µM (active) | 0.29 µM (active) | 1.94 µM (inactive) |
| CC(=O)N1N=C(N)CC1=O | > 100 µM (inactive) | > 100 µM (inactive) | > 100 µM (inactive) | > 100 µM (inactive) | > 100 µM (inactive) | > 100 µM (inactive) | > 100 µM (inactive) | > 100 µM (inactive) | > 100 µM (inactive) | > 100 µM (inactive) | > 100 µM (inactive) | > 100 µM (inactive) | > 100 µM (inactive) | > 100 µM (inactive) | > 100 µM (inactive) | > 100 µM (inactive) | > 100 µM (inactive) | > 100 µM (inactive) | > 100 µM (inactive) | > 100 µM (inactive) |
| OC1COC(OCc2ccccc2)C(O)C1O (stereo not given) | > 100 µM (inactive) | > 100 µM (inactive) | > 100 µM (inactive) | > 100 µM (inactive) | > 100 µM (inactive) | > 100 µM (inactive) | > 100 µM (inactive) | > 100 µM (inactive) | > 100 µM (inactive) | > 100 µM (inactive) | > 100 µM (inactive) | > 100 µM (inactive) | > 100 µM (inactive) | > 100 µM (inactive) | > 100 µM (inactive) | > 100 µM (inactive) | > 100 µM (inactive) | > 100 µM (inactive) | > 100 µM (inactive) | > 100 µM (inactive) |
| O=CC(=C(I)I)c1ccccc1 | 2.25 µM (inactive) | 2.87 µM (inactive) | 1.66 µM (inactive) | 3.58 µM (inactive) | 2.64 µM (inactive) | 2.14 µM (inactive) | 17.1 µM (inactive) | 0.855 µM (active) | 0.197 µM (active) | 2.57 µM (inactive) | 3 µM (inactive) | 3.04 µM (inactive) | 14.6 µM (inactive) | 3.87 µM (inactive) | 0.289 µM (active) | 1.75 µM (inactive) | 2 µM (inactive) | 21.6 µM (inactive) | 0.264 µM (active) | 2.07 µM (inactive) |
| O=C(O)c1ccc(C(=O)Nc2cccc3ccccc23)c(C(=O)O)c1 | > 100 µM (inactive) | > 100 µM (inactive) | > 100 µM (inactive) | > 100 µM (inactive) | > 100 µM (inactive) | > 100 µM (inactive) | > 100 µM (inactive) | > 100 µM (inactive) | > 100 µM (inactive) | > 100 µM (inactive) | > 100 µM (inactive) | > 100 µM (inactive) | > 100 µM (inactive) | > 100 µM (inactive) | > 100 µM (inactive) | > 100 µM (inactive) | > 100 µM (inactive) | > 100 µM (inactive) | > 100 µM (inactive) | > 100 µM (inactive) |
| COc1cc2c(cc1OC)C1CN3CCCC3C(O)C1c1cc(OC)c(OC)cc1-2 (stereo not given) | > 100 µM (inactive) | > 100 µM (inactive) | > 100 µM (inactive) | > 100 µM (inactive) | > 100 µM (inactive) | > 100 µM (inactive) | > 100 µM (inactive) | > 100 µM (inactive) | > 100 µM (inactive) | > 100 µM (inactive) | > 100 µM (inactive) | > 100 µM (inactive) | > 100 µM (inactive) | > 100 µM (inactive) | > 100 µM (inactive) | > 100 µM (inactive) | > 100 µM (inactive) | > 100 µM (inactive) | > 100 µM (inactive) | > 100 µM (inactive) |
| CCCCCCC(=O)OC[n+]1ccc(-c2c(COC(=O)NC(C)C)c(COC(=O)NC(C)C)c3n2CCC3)cc1 | 48.6 µM (inactive) | > 71.3 µM (inactive) | 42.9 µM (inactive) | > 80.4 µM (inactive) | > 100 µM (inactive) | 39.6 µM (inactive) | 35.6 µM (inactive) | > 89.9 µM (inactive) | 10 µM (inactive) | 63.5 µM (inactive) | 41 µM (inactive) | > 100 µM (inactive) | > 100 µM (inactive) | > 100 µM (inactive) | 25.2 µM (inactive) | > 87.9 µM (inactive) | 57 µM (inactive) | 46.9 µM (inactive) | > 100 µM (inactive) | > 100 µM (inactive) |
| CCO/C=C1\SC(=S)N(c2ccc(OCC)cc2)C1=O | > 100 µM (inactive) | > 100 µM (inactive) | 83.6 µM (inactive) | 48 µM (inactive) | > 100 µM (inactive) | > 100 µM (inactive) | > 100 µM (inactive) | > 100 µM (inactive) | 30.2 µM (inactive) | 71.4 µM (inactive) | > 100 µM (inactive) | > 100 µM (inactive) | > 100 µM (inactive) | 50.8 µM (inactive) | 43.1 µM (inactive) | 97.5 µM (inactive) | 67.3 µM (inactive) | 80.4 µM (inactive) | 44.6 µM (inactive) | 78.5 µM (inactive) |
| O=C(O)C1[C@@H](C(=O)O)C1(Br)CBr (stereo not given in full) | > 100 µM (inactive) | > 100 µM (inactive) | > 100 µM (inactive) | > 100 µM (inactive) | > 100 µM (inactive) | > 100 µM (inactive) | > 100 µM (inactive) | > 100 µM (inactive) | > 100 µM (inactive) | > 100 µM (inactive) | > 100 µM (inactive) | > 100 µM (inactive) | > 100 µM (inactive) | > 100 µM (inactive) | > 100 µM (inactive) | > 100 µM (inactive) | > 100 µM (inactive) | > 100 µM (inactive) | > 100 µM (inactive) | > 100 µM (inactive) |
